Test results from paper PMC9078235 (RSC Advances, 2018).

The compounds below were run against Thrombin (≥1000 NIH U mg^−1 protein) prepared from human plasma (Homo sapiens, UniProt P00734) (assay: chromogenic thrombin activation assay, […] nm).
Assay type: biochemical

| EC50 | SMILES |
| --- | --- |
| 136 µM | CC(=O)Oc1ccc(/C=C/C(=O)Nc2nc3ccccc3s2)cc1 [Q2, (E)-4-(3-(Benzo[d]thiazol-2-ylamino)-3-oxoprop-1-en-1-yl)phenyl acetate] |
| 232 µM | COc1cc(/C=C/C(=O)Nc2nc3ccccc3s2)cc(OC)c1OC [Q8, (E)-N-(Benzo[d]thiazol-2-yl)-3-(3,4,5-trimethoxyphenyl)acrylamide] |
| 127 µM | O=S(=O)(O)c1cc(O)ccc1O [etamsylate, reference compound] |
